In brackets after ≈: the same amount, converted by molar mass. Blank lines part the entries; values can stand above or below the compound they belong to.
Tests used:
[1] = Drug loading of post-loaded SIL 30 diffusion blocks, solvent extraction and HPLC; assay type: physicochemical; settings: for Drug Loading / Wt. % Loading: loaded 5 mg/mL in acetone 24 hr
Method: Loading. […] . Solutions of 5 mg/mL of drug in acetone were prepared and validated via HPLC. […] Blocks were then divided into an extraction set and a release set.
Extraction. Drug-loaded blocks were extracted using methods previously described in Section 2.6 using acetone as the extraction solvent. Aliquots were collected and analyzed with HPLC. Weight percent loading was determined as the total drug extracted relative to the mass of the dried blocks.
Block types 6.0 and 7.6 mm (n=8 of each type) were fabricated in SIL 30. A solution containing 8.562 mg/mL of 4′-ethynyl-2-fluoro-2′-deoxyadenosine (EFdA) in acetone was prepared and validated via HPLC. Blocks were batch immersed in post-loading solution for up to 24 hr. Blocks were divided into extraction (n=4) and release (n=4) sets. EFdA was extracted from blocks in acetone as previously described and quantified with HPLC. Release blocks were individually immersed in 60 mL of SVF and placed in an incubator at 37° C. Aliquots and analysis were completed using methods previously described. EFdA was quantified with HPLC, eluting at 5.31 min at 265 nm.
A test part described as a diffusion block with dimensions in X, Y, and Z of 10 mm, 20 mm, and 4 mm, respectively, was primarily used. The general flow of the post-loading process is outlined in FIG. 6A. The initial metrics of dimensional and mass measurements were taken for every block used prior to loading or testing. The block was then immersed in a post-loading solution containing a known concentration of the API for a specified duration. The part was removed and measured for swollen metrics. An aliquot of the post-loading solution following part removal was taken for HPLC analysis. The part was then dried in an oven to remove the post-loading solvent, after which the part was measured for dried metrics. These metrics serve as check points to precisely investigate part behavior throughout the post-loading process, specifically dimensional deformations. Once the part was post-loaded it can either be tested for total drug content via an extraction process, outlined in FIG. 6B, or tested for drug release in simulated vaginal fluid (SVF), outlined in FIG. 6C. Aliquots from both processes are taken for HPLC analysis.
. For these samples, metrics were taken and aliquots were analyzed via HPLC on a C18 column with an optimized method. Extraction aliquots and post-loading solution aliquots were diluted in acetonitrile (ACN) at 1:100 while release samples were analyzed as is. Extracted material includes both the incorporated drug (β-estradiol) as well as leachables/extractables. […] .
Blocks were further assessed by quantifying the extracted drug via HPLC. The total amount of drug extracted, weight percent loading and loading efficiency were calculated and averaged, with variation described by % RSD. Overall, a slight decrease in loading metrics was observed as a function of loading order. However, once averaged out, these values yielded minimal variability. Additionally, values shown are in-line with those obtained during the reproducibility study (Section 3.2) for methanol.
Both pre-loaded and post-loaded blocks were extracted in 20 mL of EtOH for 72 hours. Aliquots were taken and analyzed via HPLC. […] . […] Therefore, for the sake of consistency between previous results and subsequently prepared samples, loading values obtained in Round II were used for all calculations.

[2] = In vivo PK of EFdA-loaded IVRs in macaques; settings: female pigtailed macaques, 28 days
Method: Macaque size (25 mm OD) 3D printed IVRs post-loaded with EFdA at 45 mg/IVR or 62 mg/IVR were administered to female pigtailed macaques and plasma, PBMCs, vagina and rectal fluids, and vaginal and rectal biopsies were collected over 28 days and analyzed for EFdA concentration and EFdA-TP (triphosphorilated EFdA, EFdA-TP) in PBMCs.

[3] = In vitro release from drug-loaded blocks or ring sections in simulated vaginal fluid (SVF); assay type: physicochemical; settings: for Drug Release at Zero Order Mass/Day / Drug Release at Zero Order Percent/Day: linear regression from Day 2
physchem = settings: organic solvent or mixture
[4] = cited from earlier work
[5] = SIL 30 block 6.21 ± 0.03 mm, 8.562 mg/mL in acetone
[6] = SIL 30 block 6.21 ± 0.03 mm, 8.562 mg/mL in acetone up to 24 hr
[7] = SIL 30 block 7.62 ± 0.03 mm, 8.562 mg/mL in acetone
[8] = SIL 30 block 7.62 ± 0.03 mm, 8.562 mg/mL in acetone up to 24 hr
[9] = SIL 30 block 6.29 ± 0.04 mm, 5 mg/mL in acetone
[10] = SIL 30 block 6.29 ± 0.04 mm, 5 mg/mL in acetone 24 hr
[11] = SIL 30 block 7.81 ± 0.08 mm, 5 mg/mL in acetone
[12] = SIL 30 block 7.81 ± 0.08 mm, 5 mg/mL in acetone 24 hr

Normalized Delta SSA [1, 5]: −150.63 ± 4.00
Normalized Wt. % by S-SSA [1, 5]: 81.4 ± 2.26
Drug [1, 6]: 32.76 ± 0.76 mg
Loading [1, 6]: 2.41 ± 0.06 Wt. %
Normalized Delta SSA [1, 7]: −195.95 ± 4.41
Normalized Wt. % by S-SSA [1, 7]: 99.91 ± 3.67
Drug [1, 8]: 36.91 ± 1.18 mg
Loading [1, 8]: 2.15 ± 0.07 Wt. %
EFdA levels in tissue and fluid samples ([2]; 45 mg/IVR or 62 mg/IVR): above the known efficacious levels
EFdA-TP levels in PBMCs ([2]; 45 mg/IVR or 62 mg/IVR): above the known efficacious levels
PK levels ([2]; 62 mg vs 45 mg EFdA IVR): dose dependent
Compound: C#C[C@]1(CO)O[C@@H](n2cnc3c(N)nc(F)nc32)C[C@@H]1O [EFdA, 4′-ethynyl-2-fluoro-2′-deoxyadenosine]

Normalized Delta SSA [1, 9]: −91.19 ± 7.35
Normalized Wt. % by S-SSA [1, 9]: 47.53 ± 3.10
Drug [1, 10]: 18.95 ± 1.28 mg
Loading [1, 10]: 1.43 ± 0.10 Wt. %
Normalized Delta SSA [1, 11]: −103.29 ± 2.04
Normalized Wt. % by S-SSA [1, 11]: 52.82 ± 1.47
Drug [1, 12]: 19.38 ± 0.54 mg
Loading [1, 12]: 1.19 ± 0.03 Wt. %
Drug Loading ([1]; block 0.65 ± 0.01 mm): 2.07 ± 0.06 mg
Wt. % Loading ([1]; block 0.65 ± 0.01 mm): 1.71 ± 0.07 Wt. %
Drug Loading ([1]; block 1.51 ± 0.01 mm): 4.07 ± 0.19 mg
Wt. % Loading ([1]; block 1.51 ± 0.01 mm): 1.60 ± 0.07 Wt. %
Drug Loading ([1]; block 2.32 ± 0.02 mm): 6.46 ± 0.17 mg
Wt. % Loading ([1]; block 2.32 ± 0.02 mm): 1.46 ± 0.04 Wt. %
Drug Loading ([1]; block 3.26 ± 0.03 mm): 9.68 ± 0.70 mg
Wt. % Loading ([1]; block 3.26 ± 0.03 mm): 1.52 ± 0.11 Wt. %
Drug Loading ([1]; block 4.28 ± 0.04 mm): 14.42 ± 1.21 mg
Wt. % Loading ([1]; block 4.28 ± 0.04 mm): 1.62 ± 0.14 Wt. %
Drug Loading ([1]; block 6.29 ± 0.04 mm): 18.95 ± 1.28 mg
Wt. % Loading ([1]; block 6.29 ± 0.04 mm): 1.43 ± 0.10 Wt. %
Drug Loading ([1]; block 7.81 ± 0.08 mm): 19.38 ± 0.54 mg
Wt. % Loading ([1]; block 7.81 ± 0.08 mm): 1.19 ± 0.03 Wt. %
Drug Release at Zero Order Mass/Day ([3]; block 2.32 ± 0.02 mm, SVF): 406.25 ± 19.80 µg/day
Drug Release at Zero Order Percent/Day ([3]; block 2.32 ± 0.02 mm, SVF): 6.40 ± 0.20 Percent/Day
Drug Release at Zero Order Mass/Day ([3]; block 3.26 ± 0.03 mm, SVF): 423.43 ± 17.17 µg/day
Drug Release at Zero Order Percent/Day ([3]; block 3.26 ± 0.03 mm, SVF): 3.94 ± 0.06 Percent/Day
Drug Release at Zero Order Mass/Day ([3]; block 4.28 ± 0.04 mm, SVF): 450.51 ± 16.45 µg/day
Drug Release at Zero Order Percent/Day ([3]; block 4.28 ± 0.04 mm, SVF): 2.93 ± 0.03 Percent/Day
Drug Release at Zero Order Mass/Day ([3]; block 6.29 ± 0.04 mm, SVF): 453.56 ± 20.13 µg/day
Drug Release at Zero Order Percent/Day ([3]; block 6.29 ± 0.04 mm, SVF): 2.26 ± 0.01 Percent/Day
Drug Release at Zero Order Mass/Day ([3]; block 7.81 ± 0.08 mm, SVF): 454.52 ± 20.34 µg/day
Drug Release at Zero Order Percent/Day ([3]; block 7.81 ± 0.08 mm, SVF): 1.86 ± 0.04 Percent/Day
percent burst release normalized by SSA ([3]; post-loaded SIL 30 blocks, all block distances, normalized by placebo SSA in SVF): around 40%
percent burst release plateau ([3]; post-loaded SIL 30 blocks, larger block distances, SVF, first 24 hrs): 22%
solubility (physchem): 9500 µg/mL (≈ 35.3 mM)
Compound: Nc1nc(F)nc2c1ncn2[C@H]1C[C@H](O)[C@@H](CO)O1 [FdA, 2-fluoro-2′-deoxyadenosine]
release profile ([3]; all post-loaded SIL 30 block types, SVF): linear and sustained release following an initial burst
log p [4]: −0.57

Compound: C[C@]12CC[C@@H]3c4ccc(O)cc4CC[C@H]3[C@@H]1CC[C@@H]2O [β-Estradiol, β-estradiol]
log p [4]: 3.75
